Measurements as given in patent US11780839B2, “Compounds for treating Huntington's disease” (PTC THERAPEUTICS, INC., priority 2018, dated 2023).

System: Endogenous Huntingtin Protein
Experiment: Endogenous Huntingtin Protein Assay (ELISA-based Meso Scale Discovery electrochemiluminescence)
Type: cell-based
Conditions: MSD electrochemiluminescence, Table 1
Procedure: Compounds of Formula (I) or Formula (II) were tested using the Meso Scale Discovery (MSD) Assay provided in International Application No. PCT/US2016/066042, filed on Dec. 11, 2016 and claiming priority to U.S. Provisional Application 62/265,652 filed on Dec. 10, 2015, the entire contents of which are incorporated herein by reference.
The Endogenous Huntingtin Protein assay used in Example 1 was developed using the ELISA-based MSD electrochemiluminescence assay platform.
Endogenous Huntingtin Protein Assay
Meso Scale Discovery (MSD) 96-well or 384-well plates were coated overnight at 4° C. with MW1 (expanded polyglutamine) or MAB2166 monoclonal antibody (for capture) at a concentration of 1 μg/mL in PBS (30 μL per well). Plates were then washed three times with 300 μL wash buffer (0.05% Tween-20 in PBS) and blocked (100 μL blocking buffer; 5% BSA in PBS) for 4-5 hours at room temperature with rotational shaking and then washed three times with wash buffer.
Samples (25 μL) were transferred to the antibody-coated MSD plate and incubated overnight at 4° C. After removal of the lysates, the plate was washed three times with wash buffer, and 25 μL of #5656S (Cell signaling; rabbit monoclonal) secondary antibody (diluted to 0.25 μg/mL in 0.05% Tween-20 in blocking buffer) was added to each well and incubated with shaking for 1 Hour at room temperature. Following incubation with the secondary antibody, the wells were rinsed with wash buffer after which 25 μL of goat anti-rabbit SULFO TAG secondary detection antibody (required aspect of the MSD system) (diluted to 0.25 μg/mL in 0.05% Tween-20 in blocking buffer) was added to each well and incubated with shaking for 1 hour at room temperature. After rinsing three times with wash buffer, 150 μL of read buffer T with surfactant (MSD) were added to each empty well, and the plate was imaged on a SI 6000 imager (MSD) according to manufacturers' instructions provided for 96- or 384-well plates.

Row | SMILES | IC50
1 | CN1CCC2(CC1)CN(c1ncc(-c3ccc(-c4ccn(C)c(=O)c4)cc3O)nn1)C2 [Cpd 241, 4-{3-hydroxy-4-[3-(7-methyl-2,7-diazaspiro[3.5]nonan-2-yl)-1,2,4-triazin-6-yl]phenyl}-1-methylpyridin-2(1H)-one] | ≤ 100 nM
2 | Cn1ncc2cc(-c3ccc(-c4cnc(NC5CC(C)(C)NC(C)(C)C5)nn4)c(O)c3)ccc21 [Cpd 319, 5-(1-methyl-1H-indazol-5-yl)-2-{3-[(2,2,6,6-tetramethylpiperidin-4-yl)amino]-1,2,4-triazin-6-yl}phenol] | ≤ 100 nM
3 | Cn1ncc(-c2ccc(-c3cnc(N4CCC(NC(C)(C)C)C4)nn3)c(O)c2)n1 (centres unmarked) [Cpd 210, 2-{3-[3-(tert-butylamino)pyrrolidin-1-yl]-1,2,4-triazin-6-yl}-5-(2-methyl-2H-1,2,3-triazol-4-yl)phenol] | ≤ 100 nM
4 | CN(c1ncc(-c2ccc(-c3ccc4c(c3)OCO4)cc2O)nn1)C1CC(C)(C)NC(C)(C)C1 [Cpd 188, 5-(2H-1,3-benzodioxo1-5-yl)-2-{3-[methyl(2,2,6,6-tetramethylpiperidin-4-yl)amino]-1,2,4-triazin-6-yl}phenol] | ≤ 100 nM
5 | CC(C)NC1CCN(c2ncc(-c3ccc(-c4ncns4)cc3O)nn2)C1 (centres unmarked) [Cpd 237, 2-(3-{3-[(propan-2-yl)amino]pyrrolidin-1-yl}-1,2,4-triazin-6-yl)-5-(1,2,4-thiadiazol-5-yl)phenol] | 100 to 500 nM
6 | CC1(C)CC(Nc2ncc(-c3ccc(-n4cnc(F)c4)cc3O)nn2)CC(C)(C)N1 [Cpd 275, 5-(4-fluoro-1H-imidazol-1-yl)-2-{3-[(2,2,6,6-tetramethylpiperidin-4-yl)amino]-1,2,4-triazin-6-yl}phenol] | ≤ 100 nM
7 | CN(c1ncc(-c2ccc(-c3ccn(C)n3)c(O)c2O)nn1)C1CC(C)(C)NC(C)(C)C1 [Cpd 368, 3-(1-methyl-1H-pyrazol-3-yl)-6-{3-[methyl(2,2,6,6-tetramethylpiperidin-4-yl)amino]-1,2,4-triazin-6-yl}benzene-1,2-diol] | 100 to 500 nM

Now from value to compound:

Row | IC50 | SMILES
8 | 1000 to 3000 nM | CC1(C)C[C@H](Nc2ncc(-c3ccc(-c4cn[nH]c4)cc3O)nn2)[C@H](O)C(C)(C)N1 [Cpd 298, (3S,4S)-4-({6-[2-hydroxy-4-(1H-pyrazol-4-yl)phenyl]-1,2,4-triazin-3-yl}amino)-2,2,6,6-tetramethylpiperidin-3-ol]
9 | > 500 nM | CC(C)NC1CCN(c2ncc(-c3ccc(-c4cnc5c(cnn5C)c4)cc3O)nn2)C1 (centres unmarked) [Cpd 307, 5-(1-methyl-1H-pyrazolo[3,4-b]pyridin-5-yl)-2-(3-{3-[(propan-2-yl)amino]pyrrolidin-1-yl}-1,2,4-triazin-6-yl)phenol]
10 | ≤ 100 nM | N[C@H]1CC[C@@H]2CN(c3ncc(-c4ccc(-c5cn[nH]c5)cc4O)nn3)C[C@@H]21 [Cpd 165, 2-{3-[(3aR,4S,6aS)-4-aminohexahydrocyclopenta[c]pyrrol-2(1H)-yl]-1,2,4-triazin-6-yl}-5-(1H-pyrazol-4-yl)phenol]
11 | ≤ 100 nM | CC(C)(C)NC1CCN(c2ncc(-c3ccc(-c4c[nH]nc4F)cc3O)nn2)C1 (centres unmarked) [Cpd 174, 2-{3-[3-(tert-butylamino)pyrrolidin-1-yl]-1,2,4-triazin-6-yl}-5-(3-fluoro-1H-pyrazol-4-yl)phenol]
12 | ≤ 100 nM | CN1CCC2CN(c3ncc(-c4ccc(-c5cn[nH]c5)cc4O)nn3)CC2C1 (centres unmarked) [Cpd 166, 2-[3-(5-methyloctahydro-2H-pyrrolo[3,4-c]pyridin-2-yl)-1,2,4-triazin-6-yl]-5-(1H-pyrazol-4-yl)phenol]
13 | 100 to 500 nM | Oc1cc(-c2cn[nH]c2)ccc1-c1cnc(N2CCC(NC34CC(C3)C4)C2)nn1 (stereo not drawn) [Cpd 349, 2-(3-{3-[(bicyclo[1.1.1]pentan-1-yl)amino]pyrrolidin-l-yl}-1,2,4-triazin-6-yl)-5-(1H-pyrazol-4-yl)phenol]
14 | 100 to 500 nM | Oc1cc(-c2cn[nH]c2)ccc1-c1cnc(N2CCNCC2)nn1 [Cpd 328, 2-[3-(piperazin-1-yl)-1,2,4-triazin-6-yl]-5-(1H-pyrazol-4-yl)phenol]
